Tests used:
Adult C57BL/6 male mice [1] = test: Morphological analysis of selected organs (hematoxylin and eosin); assay type: in vivo, mouse; details: 1, 5 and 10 mg/kg i.v.; hematoxylin and eosin sections; treated vs controls
Protocol: (§1) After the test, mice were sacrificed under general anaesthesia (4% isoflurane in medical air) by cardiac puncture to withdraw blood, brain, heart, liver, kidney, spleen, and lymph nodes, which were collected into tubes with buffered formalin and stored at +4°C.
At the end of the tolerability test, tissues collected from animals injected with saline (n = 5) or treated with 1, 5 and 10 mg/kg of PMT (n = 10), were formalin-fixed and paraffin-embedded. Five µm-thick sections were obtained from the paraffin blocks and stained with hematoxylin and eosin for histologic examination.

[2] = test system: m.8344A>G mutant cybrids (H-8344); test: Cell viability in galactose medium (Trypan blue dye exclusion); assay type: cell-based, human; details: 5 µM; 24 h galactose medium; compared with non-treated mutant cells; at least three independent experiments
Protocol: (§2) Previously established osteosarcoma-derived (143B.TK-) cybrid cell lines from patients, which bear either the m.3243A>G mutation in mt-tRNA^Leu(UUR) or the m.8344A>G mutation in mt-tRNA^Lys and controls ([Perli et al., 2014]; [Perli et al., 2016]; [Perli et al., 2020]) were used.
(§3) Cybrid cells were cultured in Dulbecco’s modified Eagle’s medium (DMEM), supplemented with 4.5 g/L D-glucose, 10% foetal bovine serum (FBS), 2 mM L-glutamine, 50 μg/ML uridine, 100 U/mL penicillin, and […] (referred to as glucose medium) in a humidified atmosphere of 95% air and 5% CO2 at 37°C. For cell viability experiments, cells were grown either in glucose medium or in glucose-free DMEM, supplemented with 5 mM galactose, […], and 10% FBS (referred to as galactose medium). The reason for using the latter medium is that a pathological phenotype can be appreciated in cells growing on galactose, which forces cells to rely on mitochondrial respiration, but not in cells growing on glucose.
(§4) To assess growth capability, cells were harvested and seeded at 30 × 10^4 in 60 mm dishes in glucose medium for 24 h with the addition of one of the compounds. Cells were switched in glucose or galactose and, after 24 h, cell viability was measured by the Trypan blue dye exclusion assay. Cells were harvested with 0.25% trypsin and 0.2% EDTA, washed, suspended in PBS in the presence of Trypan blue solution (Sigma–Aldrich) at 1:1 ratio and counted using a hemocytometer. The number of viable cells in the galactose medium was expressed as a percentage of the number of cells in glucose medium.

[3] = test system: control cells (WT and L-8344 cybrids); test: as above; assay type: cell-based, human; details: WT and L-8344 cells; 24 h galactose medium
Protocol: as §2, §3, §4

m.3243A>G mutant cybrids = test: as above; assay type: cell-based, human; details: 5 µM; 24 h galactose medium; compared with non-treated mutant cells; at least three independent experiments
Protocol: as §2, §3, §4

Adult C57BL/6 male mice [4] = test: Tolerability in animals (i.v., scores, body weight, grid-hanging test); assay type: in vivo
Protocol: Sixty adult C57BL/6 male mice were initially included in the study. Twenty animals were dedicated to in vivo/ex vivo biodistribution of the radiolabelled PMT ^64Cu-PMT. The evaluation was carried out at four time points: 1, 3, 24 and 48 h. Forty animals were dedicated to tolerability studies with increasing PMT concentration: 1, 5, 10 and 50 mg/kg PMT or saline, i. v. (n = 10 per group). […] Therefore, only three groups of ten animals were dedicated to the tolerability test, and fifty C57BL/6 male mice were employed for the current study in total. […] Due to the rapidity of death, and the hydrophobic character of the C-terminal region of the PMT (see the Discussion section), it is possible that PMT aggregates obstructed one or more small vessels, causing micro-infarctions in vital organs (e.g., lung, heart, brain).
Adult C57BL/6 male mice were used to determine the general tolerability of i. v. administered PMT and identify the Maximum Tolerated Dose (MTD). To this purpose, animals were divided into four groups (n = 10 each) and injected in a tail vein with either saline (controls) or PMT freshly dissolved in saline at three scalar doses (1, 5 or 10 mg/kg). Each group was randomly divided in two subgroups (n = 5 each). Blood ocular withdrawal was performed at 1 h and 48 h post-injection for each subgroup, respectively. During this procedure, animals were anaesthetized with isoflurane (2% in medical air) and monitored until awakening.
The effect of PMT administration was evaluated every 2 days by observation of the animals and application of the following criteria and scores (see Supplementary Table S1): body weight loss (score: 1–5); coat conditions (score: 1–3); dehydration (score: 1–3); respiration (score: 1–3); spontaneous behaviour (score: 0–5); reaction to handling (score: 0–3) (IACUC of the San Raffaele Research Institute and FELASA Glossary 2015 ([Fentener van Vlissingen et al., 2015]).
The observation was carried out for 2 weeks post peptide injection. At the end, all the animals underwent a grid-hanging test to measure muscular strength performances after PMT or saline treatment ([Gayi et al., 2018]).
After a period of habituation to the metallic grid, mice were placed individually on top of a metallic grid (40 × 40 cm, 1.3 cm square mesh) suspended 50 cm above an empty cage. The grid was turned upside down and latency to fall was measured up to a fixed limit of 600 s. Each mouse performed three trials and the longest holding time (s) among them was multiplied by the animal’s body weight (g) to calculate Holding impulse (g*s).
as §1
Data on PMT tolerability in animals (i.e., body mass monitoring and grip-hanging test) are expressed as mean ± SD and analysed using one-way ANOVA corrected for multiple comparison Turkey test.

SMILES: CC[C@@H](C)[C@@H](NC(=O)[C@@H](CC(C)C)NC(=O)[C@@H](C)NC(=O)[C@H](NC(=O)[C@@H](CCCNC(=N)N)NC(=O)[C@H]1CCCN1C(=O)[C@@H](CO)NC(=O)[C@@H](CC(C)C)NC(=O)[C@@H](Cc1ccccc1)NC(=O)[C@@H](CO)NC(=O)[C@@H](CCCCN)NC(=O)[C@H](N)CCCCN)[C@H](C)O)C(=O)N[C@H](CC(N)=O)C(=O)N[C@H](Cc1ccccc1)C(=O)N[C@H](CC(C)C)C(=O)N[C@@H](C(N)=O)C(C)C [PMT]
- Morphological change in organs or tissues (Adult C57BL/6 male mice [1]): did not reveal any morphological change
- Cell viability (viable cells in galactose as % of glucose medium) [2]: significant improvement of cell viability
- Cell viability of control cells [3]: do not affect
- Cell viability (viable cells in galactose as % of glucose medium) (m.3243A>G mutant cybrids): significant improvement of cell viability
- Tolerability after a single i.v. acute administration (Adult C57BL/6 male mice [4]; 1, 5 and 10 mg/kg, wild-type mice, 14 days of observation): well tolerated
- Mice with decrease of body weight (score 4) (Adult C57BL/6 male mice [4]; mouse, in vivo): 1/10
- Mice with mild tachypnoea (score 1) (Adult C57BL/6 male mice [4]; mouse, in vivo): 5/10
- Mice with slight decrease of body weight (score 1) (Adult C57BL/6 male mice [4]; mouse, in vivo): 5/10
- Mice with slight decrease of body weight (score 1–2) (Adult C57BL/6 male mice [4]; mouse, in vivo): 5/10
- Outcome of the highest dose (Adult C57BL/6 male mice [4]; mouse, in vivo): died immediately after the administration
- Safe dosage (Adult C57BL/6 male mice [4]; mouse, in vivo, iv): up to 10 mg/kg
- Necropsy finding (Adult C57BL/6 male mice [4]; mouse, in vivo, iv, 50 mg/kg): did not highlight any obvious macroscopic effect

Source: PMC12336229, “Peptide-mimetics derived from leucyl-tRNA synthetase are potential agents for the therapy of mt-tRNA related diseases” (Frontiers in Pharmacology, 2025)
